Measurements taken from patent publication US20180028477A1, “TREATMENT OF CARDIAC REMODELING AND OTHER HEART CONDITIONS” (C & C BIOPHARMA, LLC, priority 2013, published 2018).
“Also recorded” adds a separate entry of the source.

Experiments:
[1] = test system: Neonatal Rat Ventricular Myocytes (NRVMs); assay: Serum (FBS)-induced hypertrophy of Neonatal Rat Ventricular Myocytes in vitro; type: cell-based
Description: The cells were also treated with DMSO (light gray bars) or a vehicle (dark gray bars) as a negative control. The order of potency for inhibitors was DMSO<7MI<TSA<8MI. Viability was unchanged (not shown).
Next, the ability of 7MI and 8MI to inhibit hypertrophy in vitro was tested (FIG. 2A). […] However, fetal calf serum, which contained a rich variety of growth factors, was chosen as the most robust and multifactorial stimulus for cardiomyocyte growth available, reasoning that a similarly robust and powerful inhibitor would be required to block this hypertrophy.

a variety of cells = assay: Toxicity in the culture of a variety of cells; type: cell-based
[2] = test system: cardiac function after TAC in mice; assay: Echocardiography of cardiac function 21 days post TAC (Example 8); type: in vivo
Description: Masson's Trichrome was used to visualize cardiac four-chamber anatomy. Paraffin embedded sections were used for staining (FIG. 5B). Representative wheat germ agglutinin (WGA)-stained sections of myocardium from the mice were prepared. For echocardiography (FIG. 5C), mice were placed under anesthesia with 40 mg/kg ketamine and 5 mg/kg xylocaine and secured in a supine position. Mice were evaluated using […] transducer on a Visual Sonics 770 High Resolution Imaging System. B-mode in the short and long axis view of the ventricle was used to evaluate wall motion defects of ventricle and M-mode in long axis view used for the interventricular septal thickness, posterior wall thickness and the left ventricular dimensions in systole and diastole.
Echocardiographic studies were performed on the mice to examine systolic function under the experimental conditions described in Example 4. […] As expected, TAC induced a 37% fall in ejection fraction at 21 days (sham, 82.4±1.8% vs. TAC, 51.7±5.1%) (FIG. 8A). […] The mice maintained a near-normal ejection fraction of 75.4% at the highest dose of 8MI (FIG. 8A). […] LV end diastolic diameter (LViDd) (FIG. 8D), LV end-systolic diameter (LViDs) (FIG. 8E), LV systolic volume (LV Vs) (FIG. 8F), and LV diastolic volume (LV Vd) (FIG. 8G) were increased by TAC and diminished in the presence of 8MI. […] Heart rate was unaffected in all mice (FIG. 8H).

[3] = Metabolic stability in human liver microsomes fortified with NADPH (Example 11); type: in vitro ADME; parameters: CLint scaled: dose or concentration left out as unconfirmed
Description: Drug clearance is a measure of the ability of the body or an organ to eliminate a drug from the blood circulation. Systemic clearance is a measure of the ability of the entire body to eliminate the drug. Organ clearance is a measure of the ability of a particular organ (hepatic or renal) to eliminate the drug. For hepatic clearance, the liver is the major organ for drug metabolism and the key organ for drug clearance. Human liver microsomes (HLM) fortified with NADPH is a standard way to measure in vitro metabolism and predict in vivo clearance. CLint (intrinsic clearance) is the link between in vitro and in vivo studies, which can be estimated based on the mono-exponential decay model: Ct=C X e^−kt.
Human liver microsomes fortified with NADPH is a standard approach to evaluate metabolic stability mediated by CYP (cytochrome P450) enzymes in vitro. The reaction mixture (0.4 mL) contained 0.5 mg/mL human liver microsomes, 100 mM phosphate buffer (pH 7.4) and […] of test compounds. The mixture was first warmed up for 5 min in a 37° C. shaking water bath and then NADPH at a final concentration of 1 mM was added to initiate the reaction. Aliquots […] were taken at specified time points and mixed with ice-cold methanol (containing internal standard) to stop the reaction. The mixture was vortexed briefly and centrifuged for protein precipitation. An aliquot of […] supernatant was subject to LC-MS/MS analysis. The percentage of compound disappearance was used to calculate the rate of metabolism.

[4] = test system: cardiac structural and hypertrophy-associated genes (Col1, Col3, ANP, BNP, SERCA2, alpha- and beta-MHC); assay: Quantitative realtime PCR of cardiac structural and hypertrophy-associated genes in left ventricular tissue after TAC (Example 7); type: in vivo, mice; details: mRNA, 21 days after TAC
Description: In parallel samples from the experiment described in Example 4, the expression of a group of cardiac structural and hypertrophy-associated genes were quantified. Total RNA was extracted from left ventricular tissue using TRIzol Reagent (Invitrogen, Carlsbad, Calif.). cDNA was amplified using TaqMan Universal PCR master mix reagent (Applied Biosystems, Foster City, Calif.) under the following conditions: 2 min at 50° C., 10 min at 95° C., 40 cycles: 15 s at 95° C. and 1 min at 60° C. in an ABI 7900HT thermocycler. mRNA expression levels were normalized to those of the internal reference 18S rRNA. All samples were run in duplicates. The following primer sets were used: ANP, BNP, SERCA, MHC, and 18S. Data was analyzed using software RQ manager 1.2 from Applied Biosystems.

MEF2 = MEF2 acetylation in myocardial lysates, immunoprecipitation/Western (Example 9); type: in vivo, mice
Description: Acetyl-MEF2 and acetyl-GATA4 were determined as described in Example 9 in myocardial lysates of TAC- or sham-operated mice treated with the indicated doses of 8MI, or its vehicle (0), as indicated. […] MEF2 acetylation is increased by TAC and reduced by 8MI. Myocardial lysates were immunoprecipitated with either anti-pan MEF2 or GATA4 antibodies, and probed with antibodies against MEF2, GATA4 or acetyl-lysine (control). The quantified data shown in FIG. 9 is from 3 mice per group and normalized to total acetyl-lysine (western blots are not shown).
MEF2 acetylation was determined in myocardial tissue from sham- and TAC-operated mice in the presence of vehicle or 8MI, under the experimental conditions described in Example 4. Protein samples were collected in RIPA (Sigma). […] of protein samples were incubated with 5 μg of acetyl lysine or GATA4 antibodies (Upstate, Charlottesville, Va.) or MEF2 antibody (Santa Cruz Biotechnology, Santa Cruz, Calif.) (5 μg). The immune-complexes were captured using TrueBlot sepharose beads and subjected to Western analysis. The immune complexes were resolved on SDS-PAGE and transferred to nitrocellulose membranes. Membranes were blocked with 5% milk in 0.5% TBS-T for 1 hour at room temperature followed by incubation in primary antibody at appropriate dilutions overnight. […]

[5] = 21 days post TAC, depressed by TAC
[6] = 21 days post TAC, increased by TAC

Nc1ccccc1NC(=O)CCCCCC(=O)Nc1cccc(Br)c1 [8MI]
viability ([1]; NRVMs (not shown)): unchanged
order of potency for inhibitors ([1]; NRVMs, FBS-induced growth): most potent inhibitor; also recorded: DMSO<7MI<TSA<8MI
growth response to Fetal Bovine Serum / serum-stimulated myocyte growth (hypertrophy) ([1]; NRVMs, pre-treatment with a range of doses): sufficient to block myocyte hypertrophy; also recorded: depressed growth response
concentration up to which no apparent toxicity was seen (a variety of cells): up to 20 μM
systolic function / cardiac function under sustained pressure overload ([2]; 21 days post TAC, 5, 20 and 40 mg/kg, dose-dependent): preserved systolic function; also recorded: preservation of cardiac function
ejection fraction ([2]; 21 days post TAC, highest dose of 8MI (sham 82.4±1.8%, TAC 51.7±5.1%)): 75.4%
fractional shortening (FS) [2, 5]: similarly restored
stroke volume [2, 5]: similarly restored
LV end diastolic diameter (LViDd) [2, 6]: diminished
LV end-systolic diameter (LViDs) [2, 6]: diminished
LV systolic volume (LV Vs) [2, 6]: diminished
heart rate ([2]; all mice, 21 days): unaffected
cardiac function in sham-operated mice ([2]; sham-operated mice treated with 8MI): normal cardiac function
K (rate constant) ([3]; 0.5 mg/mL human liver microsomes, 1 mM NADPH, pH 7.4, 37° C.): 0.0046 min⁻¹
Clhp (hepatic clearance) ([3]; human liver microsomes): 3.85 mL/min/kg
CLint scaled ([3]; pH 7.4, human liver microsomes, from mono-exponential decay model, read-out: Clint (intrinsic clearance)): 4.73 mL/min/kg
stress-induced expression of B-type natriuretic peptide (BNP) [4]: markedly attenuated
stress-induced expression of Collagen Type 1 (Col1) [4]: markedly attenuated
stress-induced expression of Collagen Type 3 (Col3) [4]: markedly attenuated
stress-induced expression of SERCA2 [4]: markedly attenuated
stress-induced expression of alpha-myosin heavy chain [4]: markedly attenuated
stress-induced expression of atrial natriuretic peptide (ANP) [4]: markedly attenuated
stress-induced expression of beta-myosin heavy chain [4]: markedly attenuated
TAC-induced acetyl-MEF2 content (MEF2; TAC-operated mice, increasing doses of 8MI): reduced the acetyl-MEF2 content to level at or below those of the sham-operated mice; also recorded: reduced
total acetyl-MEF2 content, basal (MEF2; sham-operated mice, maximum dose (40 mg/kg) versus vehicle (DMSO), 40 mg/kg): not different; also recorded: does not reduce acetyl-MEF2 levels
